The text below walks through data of the NIST ThermoML archive (doi:10.1021/acs.jced.8b00600).

± gives the expanded uncertainty stated by the source.

A short description of series [1]: xn = mol fraction of the nth substance listed. Conditions: 313.15 K; 101.3 kPa; Liquid; Vibrating tube method; x2 = 0.333.
The nature of series [2]: refractive index (Na D-line) (dimensionless); xn = mol fraction of the nth substance listed. The settings on record: 313.15 K; 101.3 kPa; Liquid; Standard Abbe refractometry; x2 = 0.333.

On to `OCCCCCCO` [1,6-hexanediol] + CCC[N+](CCC)(CCC)CCC.[Br-], for which the mass density in series [1] was determined as 1042.25 ± 2 kg/m3. Further, the refractive index in series [2] came out at 1.47923 ± 0.002.

As usually defined, the mass density is mass per unit of volume. As usually defined, the refractive index is a measure of how strongly the sample bends light.
